From US4863944A, “Dopamine-β-hydroxylase inhibitors” (SmithKline Beckman Corporation, priority 1988, dated 1989)
pIC50: −log10 of the molar value. Where a name gives a salt, the structure may show the parent alone.

Experiments:
DBH [1] = details: treated patients; Friedman et al.; significance uncertain; cited from earlier work
[2] = molecular target: T1, dopamine-β-hydroxylase (DBH) (Bos taurus, UniProt P15101); test: biochemical; details: in vitro; tyramine to octopamine; absorbance at 330 nm; read-out: IC50 (molar concentration of compound at which DBH activity was halved)
T1 sequence (P15101 1-610): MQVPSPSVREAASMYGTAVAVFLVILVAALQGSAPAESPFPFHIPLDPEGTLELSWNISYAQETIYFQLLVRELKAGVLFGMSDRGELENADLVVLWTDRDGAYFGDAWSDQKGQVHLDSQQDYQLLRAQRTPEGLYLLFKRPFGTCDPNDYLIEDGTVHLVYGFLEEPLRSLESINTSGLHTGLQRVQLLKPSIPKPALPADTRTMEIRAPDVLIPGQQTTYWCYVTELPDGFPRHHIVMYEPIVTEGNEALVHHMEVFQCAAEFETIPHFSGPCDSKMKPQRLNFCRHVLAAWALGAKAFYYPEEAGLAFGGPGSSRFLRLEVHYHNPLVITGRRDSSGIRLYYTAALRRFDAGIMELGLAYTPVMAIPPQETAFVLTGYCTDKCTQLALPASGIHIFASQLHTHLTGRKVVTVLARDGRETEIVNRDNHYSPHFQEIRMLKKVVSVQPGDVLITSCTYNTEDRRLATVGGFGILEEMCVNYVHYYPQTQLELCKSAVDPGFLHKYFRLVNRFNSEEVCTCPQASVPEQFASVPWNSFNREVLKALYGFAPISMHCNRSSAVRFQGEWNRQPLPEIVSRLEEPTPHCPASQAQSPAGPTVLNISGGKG
Method: Octopamine was assayed following sodium periodate oxidation to p-hydroxybenzaldehyde by measuring spectrophotometric absorbance at 330 nm. […] Melting points (mp) are given in °C.

[3] = tested on: spontaneously hypertensive rats; test: in vivo activity in spontaneously hypertensive rats: electrolyte excretion, urine volume, systolic blood pressure, heart rate; design: species or system rats (Okamoto-Aoki strain spontaneously hypertensive); details: for Heart Rate 1st dose / Systolic Blood Pressure 1st dose: after 1st dose; for Heart Rate 1st dose / Systolic Blood Pressure 1st dose / Heart Rate 2nd dose / Systolic Blood Pressure 2nd dose: tail-cuff; for Heart Rate 2nd dose / Systolic Blood Pressure 2nd dose: two hours after 2nd dose; for Electrolytes Excreted K^+ / Electrolytes Excreted Na^+ / Urine Volume: urine collected for three hours
Source text: The following procedure was used to test, for in vivo activity, compounds which can be used to inhibit DBH activity in mammals, including certain illustrative compounds of the invention. The compounds wherein R is --CO2 H or --CH2 NHC6 H5, X is --H, Y is --H and n is 1 are not compounds of the invention but can be used in the method of the invention.
Male, Okamoto-Aoki strain spontaneously hypertensive rats, aged 16-20 weeks, were used for testing. The afternoon before testing, the animals were fasted and the following morning the first dose of the test compound was administered, p.o., along with a 25 ml/kg load of normal saline. The animals were then placed in metabolism cages, three per cage, and urine was collected for three hours and subsequently analyzed for sodium, potassium, and creatinine. Indirect systolic blood pressure and heart rate were measured via a tail-cuff method and the animals received an identical second does of the test compound. Two hours after the second dose, the systolic blood pressure and heart rate were again determined. Drugs were administered as a solution or suspension in normal saline with 0.02% ascorbic acid.
Three rats weighing 270-320 g were used. Each received two intraperitoneal injections, in a 24 hour period, of a dose volume of 5 mL and a dose concentration of 50 mg/kg or 25 mg/kg, in 0.9% NaCl, following a 24 hour pretreatment dose. Averaged results with control animals, three per experiment, are reported in parentheses below results of test animals.

DBH [4] = details: cited from earlier work; for DBH inhibition / mode of DBH inhibition: result in words
[5] = result in words; cited from earlier work
[6] = at certain concentrations; Ehrreich et al.; cited from earlier work
[7] = result in words; Teresawa et al.; cited from earlier work

SMILES: CC(C)NCC(O)COc1cccc2ccccc12 (racemic) [propanolanol]
- DBH levels (DBH [1]): not

SMILES: Br.Br.Oc1ccc(Cn2ccnc2CNc2ccccc2)cc1 [1-(4-hydroxybenzyl)-2-phenylaminomethyl imidazole dihydrobromide]
- pIC50 [2]: < 4.00
- Na^+ /K^+ ratio ([3]; dose = 50 mg/kg): 2.927
- Heart Rate 1st dose ([3]; dose = 50 mg/kg): 440 beats/min
- Systolic Blood Pressure 1st dose ([3]; dose = 50 mg/kg): 181 mmHg
- Heart Rate 2nd dose ([3]; dose = 50 mg/kg): 480 beats/min
- Systolic Blood Pressure 2nd dose ([3]; dose = 50 mg/kg): 175 mmHg
- Electrolytes Excreted K^+ ([3]; dose = 50 mg/kg): 74.27 μEq/rat
- Electrolytes Excreted Na^+ ([3]; dose = 50 mg/kg): 217.36 μEq/rat
- Urine Volume ([3]; dose = 50 mg/kg): 3 ml/rat
- in vivo activity as cardiotonic ([3]; result in words): significant cardiotonic activity

SMILES: c1ccc(CNCc2nccn2Cc2ccccc2)cc1 [1-benzyl-2-benzylaminomethyl imidazole dihydrochloride]
- pIC50 [2]: 4.00

SMILES: O=C(O)c1ccc(CCC(Br)CBr)cn1 (centres unmarked) [5-(3,4-dibromo)butyl picolinic acid]
- DBH inhibition (DBH [4]): DBH inhibitors

SMILES: O=C(O)c1ccc(CCCCCl)cn1 [5-(4-chlorobutyl)picolinic acid]
- DBH inhibition (DBH [4]): can inhibit DBH

SMILES: CN(C)C(=S)SCc1ccc(C(=O)O)nc1 [5-(dimethyldithiocarbamoyl)methyl picolinic acid]
- DBH inhibition (DBH [4]): DBH inhibitors

SMILES: NOCc1ccccc1 [Benzyloxyamine, benzyloxyamine]
- mode of DBH inhibition (DBH [4]): apparently act as competitive inhibitors

SMILES: CCCCc1ccc(C(N)=O)nc1 [Bupicomide, 5-(n-butyl)picolinamide]
- DBH inhibition (DBH [4]): DBH inhibitor
- antihypertensive activity [5]: antihypertensive activity

SMILES: NCCc1ccc(O)c(O)c1 [DA, dopamine]
- vasodilator activity [6]: selective vasodilator activity at certain concentrations

SMILES: CCCCc1ccc(C(=O)O)nc1 [Fusaric acid]
- hepatotoxicity [7]: hepatotoxic

SMILES: Br.Br.NCc1nccn1Cc1ccc(O)cc1 [R = CH2 NH2.2HBr, Y = OH, X = H, n = 1, 1-(4-hydroxybenzyl)-2-aminomethyl imidazole dihydrobromide]
- pIC50 [2]: 4.46
- Na^+ /K^+ ratio ([3]; dose = 25 mg/kg): 2.159
- Heart Rate 1st dose ([3]; dose = 25 mg/kg): 420 beats/min
- Systolic Blood Pressure 1st dose ([3]; dose = 25 mg/kg): 161 mmHg
- Heart Rate 2nd dose ([3]; dose = 25 mg/kg): 440 beats/min
- Systolic Blood Pressure 2nd dose ([3]; dose = 25 mg/kg): 158 mmHg
- Electrolytes Excreted K^+ ([3]; dose = 25 mg/kg): 103.42 μEq/rat
- Electrolytes Excreted Na^+ ([3]; dose = 25 mg/kg): 223.24 μEq/rat
- Urine Volume ([3]; dose = 25 mg/kg): 3 ml/rat
- in vivo activity as antihypertensive ([3]; result in words): significant antihypertensive activity

SMILES: NCc1nccn1Cc1ccccc1 [R = CH2 NH2.2HCl, Y = H, X = H, n = 1, 1-benzyl-2-aminomethyl imidazole dihydrochloride]
- pIC50 [2]: 3.62

SMILES: O=C(O)c1nccn1CCCc1ccc(O)cc1 [R = CO2 H.1/2 H2 O, Y = OH, X = H, n = 3, 1-[3-(4-hydroxyphenyl)propyl]imidazole-2-carboxylic acid, hemihydrate]
- pIC50 [2]: 4.15
- Na^+ /K^+ ratio ([3]; dose = 25 mg/kg): 1.313
- Heart Rate 1st dose ([3]; dose = 25 mg/kg): 400 beats/min
- Systolic Blood Pressure 1st dose ([3]; dose = 25 mg/kg): 176 mmHg
- Heart Rate 2nd dose ([3]; dose = 25 mg/kg): 440 beats/min
- Systolic Blood Pressure 2nd dose ([3]; dose = 25 mg/kg): 173 mmHg
- Electrolytes Excreted K^+ ([3]; dose = 25 mg/kg): 152.18 μEq/rat
- Electrolytes Excreted Na^+ ([3]; dose = 25 mg/kg): 199.74 μEq/rat
- Urine Volume ([3]; dose = 25 mg/kg): 6 ml/rat
- in vivo activity as diuretic ([3]; result in words): significant diuretic activity

SMILES: O=C(O)c1nccn1Cc1ccccc1 [R = CO2 H.HCl, Y = H, X = H, n = 1]
- pIC50 [2]: 4.96
- Na^+ /K^+ ratio ([3]; dose = 50 mg/kg): 1.270
- Heart Rate 1st dose ([3]; dose = 50 mg/kg): 440 beats/min
- Systolic Blood Pressure 1st dose ([3]; dose = 50 mg/kg): 211 mmHg
- Heart Rate 2nd dose ([3]; dose = 50 mg/kg): 480 beats/min
- Systolic Blood Pressure 2nd dose ([3]; dose = 50 mg/kg): 185 mmHg
- Electrolytes Excreted K^+ ([3]; dose = 50 mg/kg): 214.52 μEq/rat
- Electrolytes Excreted Na^+ ([3]; dose = 50 mg/kg): 272.54 μEq/rat
- Urine Volume ([3]; dose = 50 mg/kg): 15 ml/rat
- in vivo activity as antihypertensive ([3]; result in words): significant in vivo activity
- in vivo activity as cardiotonic ([3]; result in words): significant in vivo activity
- in vivo activity as diuretic ([3]; result in words): significant in vivo activity
- in vivo activity as natriuretic ([3]; result in words): significant in vivo activity

SMILES: COc1ccc(Cn2ccnc2C(=O)O)cc1 [R = CO2 H.HCl, Y = OCH3, X = H, n = 1, 1-(4-methoxybenzyl)imidazole-2-carboxylic acid hydrochloride]
- pIC50 [2]: 4.12

SMILES: COc1ccc(CCCn2ccnc2C(=O)O)cc1 [R = CO2 H.HCl, Y = OCH3, X = H, n = 3, 1-[3-(4-methoxyphenyl)propyl]imidazole-2-carboxylic acid hydrochloride]
- pIC50 [2]: 4.02

SMILES: O=C(O)c1nccn1Cc1ccc(O)cc1 [R = CO2 H.HCl, Y = OH, X = H, n = 1, hydrochloride hydrate]
- pIC50 [2]: 4.05

SMILES: CC(N)(Cc1ccc(O)c(O)c1)C(=O)O (stereo not drawn) [alpha-methyl-DOPA]
- DBH levels (DBH [1]): lowered DBH levels

SMILES: NNCc1ccccc1 [benzylhydrazine]
- mode of DBH inhibition (DBH [4]): apparently act as competitive inhibitors

SMILES: O=C(O)c1ccc(Cc2ccc(O)cc2)cn1 [phenopicolinic acid]
- DBH inhibitory activity relative to fusaric acid (DBH [4]; Runti et al.): twice the inhibitory activity of fusaric acid
- DBH inhibition (DBH [4]): can inhibit DBH

SMILES: COC(=O)[C@H]1[C@H]2C[C@@H]3c4[nH]c5cc(OC)ccc5c4CCN3C[C@H]2C[C@@H](OC(=O)c2cc(OC)c(OC)c(OC)c2)[C@@H]1OC [reserpine]
- DBH levels (DBH [1]): lowered DBH levels
